Experimental data taken from ChEMBL document CHEMBL3885881, “DrugMatrix”.
Values joined by “and” are separate entries in the source; they are usually repeats but may differ in a detail not shown here. Equal entries are not always repeated.

Species on record: Rattus norvegicus
Test: DrugMatrix - Regimen: Daily Repeat
Format: toxicity, organism-based, Sprague-Dawley
Set-up: regimen Daily Repeat, gender Male, age 6-8 weeks
Conditions: in vivo; for ABSOLUTE BASOPHIL / ABSOLUTE EOSINOPHIL / ABSOLUTE LYMPHOCYTE / ABSOLUTE MONOCYTE / ABSOLUTE SEGMENTED NEUTROPHIL / HEMOGLOBIN / MEAN CORPUSCULAR HEMOGLOBIN / MEAN CORPUSCULAR VOLUME / BASOPHIL / EOSINOPHIL / ERYTHROCYTE COUNT / HEMATOCRIT / LEUKOCYTE COUNT / LYMPHOCYTE / MEAN CORPUSCULAR HEMOGLOBIN CONCENTRATION / MONOCYTE / NEUTROPHIL / PLATELET COUNT / NUCLEATED RED BLOOD CELLS: tissue Blood
[1] = ip, 40 mg/kg, 120 h, tissue Plasma, route intraperitoneal, dose level High, time 5 day, vehicle 100 % SALINE
[2] = ip, 40 mg/kg, […], route intraperitoneal, dose level High, time 14 day, vehicle 100 % SALINE
[3] = ip, 40 mg/kg, […], route intraperitoneal, dose level High, time 28 day, vehicle 100 % SALINE
[4] = ip, 40 mg/kg, […], tissue Plasma, route intraperitoneal, dose level High, time 14 day, vehicle 100 % SALINE
[5] = ip, 40 mg/kg, […], tissue Plasma, route intraperitoneal, dose level High, time 28 day, vehicle 100 % SALINE
[6] = sc, 34 mg/kg, 72 h, route subcutaneous, dose level Low, time 3 day, […]
[7] = sc, 34 mg/kg, 72 h, tissue Plasma, route subcutaneous, dose level Low, time 3 day, […]
[8] = sc, 34 mg/kg, 120 h, route subcutaneous, dose level Low, time 5 day, […]
[9] = sc, 34 mg/kg, 120 h, tissue Plasma, route subcutaneous, dose level Low, time 5 day, […]

GENTAMICIN
LIPASE [1]: 13.6 u/L and 7.25 u/L
PHOSPHORUS [1]: 12.05 mg/dL
POTASSIUM [1]: 5.95 MEQ/L
SODIUM [1]: 150.75 MEQ/L
TOTAL BILIRUBIN [1]: 0.18 mg/dL and 0.33 mg/dL
TOTAL PROTEIN [1]: 5.74 G/DL and 6.48 G/DL
URIC ACID [1]: 0.96 mg/dL
ABSOLUTE BASOPHIL [2]: 72 cells/µL
ABSOLUTE EOSINOPHIL [2]: 92 cells/µL
ABSOLUTE LYMPHOCYTE [2]: 8980 cells/µL
ABSOLUTE MONOCYTE [2]: 190 cells/µL
ABSOLUTE SEGMENTED NEUTROPHIL [2]: 1000 cells/µL
HEMOGLOBIN [2]: 15.3 G/DL
MEAN CORPUSCULAR HEMOGLOBIN [2]: 19.4 pg
MEAN CORPUSCULAR VOLUME [2]: 59.54 fL
ABSOLUTE BASOPHIL [3]: 99 cells/µL
ABSOLUTE EOSINOPHIL [3]: 110 cells/µL
ABSOLUTE LYMPHOCYTE [3]: 11600 cells/µL
ABSOLUTE MONOCYTE [3]: 260 cells/µL
ABSOLUTE SEGMENTED NEUTROPHIL [3]: 1950 cells/µL
BASOPHIL [3]: 0.7%
EOSINOPHIL [3]: 0.81%
ERYTHROCYTE COUNT [3]: 8.29 x10E6/uL
HEMATOCRIT [3]: 46.05%
HEMOGLOBIN [3]: 15.27 G/DL
LEUKOCYTE COUNT [3]: 14.13 x10E3/uL
LYMPHOCYTE [3]: 82.22%
MEAN CORPUSCULAR HEMOGLOBIN [3]: 18.44 pg
MEAN CORPUSCULAR HEMOGLOBIN CONCENTRATION [3]: 33.17 G/DL
MEAN CORPUSCULAR VOLUME [3]: 55.59 fL
MONOCYTE [3]: 1.82%
NEUTROPHIL [3]: 14.01%
PLATELET COUNT [3]: 1416.3 x10E3/uL
CARBON DIOXIDE [4]: 25.75 mmol/L
CHLORIDE [4]: 107 MEQ/L
SODIUM [4]: 150 MEQ/L
ALANINE AMINOTRANSFERASE [5]: 32.3 u/L
ALBUMIN [5]: 3.62 G/DL
ALKALINE PHOSPHATASE [5]: 139.3 u/L
ASPARTATE AMINOTRANSFERASE [5]: 96 u/L
BLOOD UREA NITROGEN [5]: 14.9 mg/dL
CHOLESTEROL [5]: 65.3 mg/dL
CREATINE PHOSPHOKINASE [5]: 320.4 u/L
CREATININE [5]: 0.65 mg/dL
LACTATE DEHYDROGENASE [5]: 119.4 u/L
LIPASE [5]: 11 u/L
PHOSPHORUS [5]: 9.46 mg/dL
POTASSIUM [5]: 6.33 MEQ/L
TOTAL BILIRUBIN [5]: 0.17 mg/dL
TOTAL PROTEIN [5]: 6.66 G/DL
URIC ACID [5]: 1.24 mg/dL
ABSOLUTE BASOPHIL [6]: 0 CELLS/uL
ABSOLUTE EOSINOPHIL [6]: 60.67 CELLS/uL
ABSOLUTE LYMPHOCYTE [6]: 14515.67 CELLS/uL
ABSOLUTE MONOCYTE [6]: 63 CELLS/uL
ABSOLUTE SEGMENTED NEUTROPHIL [6]: 1227.33 CELLS/uL
BASOPHIL [6]: 0%
EOSINOPHIL [6]: 0.33%
ERYTHROCYTE COUNT [6]: 5.19 x10E6/uL
HEMATOCRIT [6]: 32.97%
HEMOGLOBIN [6]: 12.73 G/DL
LEUKOCYTE COUNT [6]: 15.87 x10E3/uL
LYMPHOCYTE [6]: 91.67%
MEAN CORPUSCULAR HEMOGLOBIN [6]: 24.57 pg
MEAN CORPUSCULAR HEMOGLOBIN CONCENTRATION [6]: 38.63 G/DL
MEAN CORPUSCULAR VOLUME [6]: 63.57 fL
MONOCYTE [6]: 0.33%
NEUTROPHIL [6]: 7.67%
NUCLEATED RED BLOOD CELLS [6]: 0 /100WBC
PLATELET COUNT [6]: 1222.33 x10E3/uL
ALANINE AMINOTRANSFERASE [7]: 55.67 u/L
ALBUMIN [7]: 4 G/DL
ALKALINE PHOSPHATASE [7]: 327 u/L
ASPARTATE AMINOTRANSFERASE [7]: 105 u/L
BLOOD UREA NITROGEN [7]: 14.67 mg/dL
CARBON DIOXIDE [7]: 20.67 mmol/L
CHLORIDE [7]: 107.33 MEQ/L
CHOLESTEROL [7]: 82 mg/dL
CREATINE PHOSPHOKINASE [7]: 574.67 u/L
CREATININE [7]: 0.29 mg/dL
GLUCOSE [7]: 196.33 mg/dL
LACTATE DEHYDROGENASE [7]: 268.67 u/L
LIPASE [7]: 11.33 u/L
POTASSIUM [7]: 6.59 MEQ/L
SODIUM [7]: 147.27 MEQ/L
TOTAL BILIRUBIN [7]: 0.2 mg/dL
TOTAL PROTEIN [7]: 5.7 G/DL
ABSOLUTE BASOPHIL [8]: 0 CELLS/uL
ABSOLUTE EOSINOPHIL [8]: 0 CELLS/uL
ABSOLUTE LYMPHOCYTE [8]: 14029.67 CELLS/uL
ABSOLUTE MONOCYTE [8]: 90.67 CELLS/uL
ABSOLUTE SEGMENTED NEUTROPHIL [8]: 1246.33 CELLS/uL
BASOPHIL [8]: 0%
EOSINOPHIL [8]: 0%
ERYTHROCYTE COUNT [8]: 5.74 x10E6/uL
HEMOGLOBIN [8]: 13.5 G/DL
LEUKOCYTE COUNT [8]: 15.37 x10E3/uL
LYMPHOCYTE [8]: 91%
MEAN CORPUSCULAR HEMOGLOBIN [8]: 23.57 pg
MEAN CORPUSCULAR HEMOGLOBIN CONCENTRATION [8]: 36.03 G/DL
MONOCYTE [8]: 0.67%
NEUTROPHIL [8]: 8.33%
NUCLEATED RED BLOOD CELLS [8]: 0 /100WBC
PLATELET COUNT [8]: 1310.33 x10E3/uL
ALANINE AMINOTRANSFERASE [9]: 46.33 u/L
ALBUMIN [9]: 4.2 G/DL
ALKALINE PHOSPHATASE [9]: 391.33 u/L
ASPARTATE AMINOTRANSFERASE [9]: 95.33 u/L
CARBON DIOXIDE [9]: 24 mmol/L
CHLORIDE [9]: 106.67 MEQ/L
CHOLESTEROL [9]: 71 mg/dL
CREATINE PHOSPHOKINASE [9]: 308.33 u/L
CREATININE [9]: 0.18 mg/dL
LACTATE DEHYDROGENASE [9]: 196.33 u/L
PHOSPHORUS [9]: 13.37 mg/dL
POTASSIUM [9]: 7.64 MEQ/L
TOTAL BILIRUBIN [9]: 0.2 mg/dL
